Results taken from ChEMBL document CHEMBL1201862, “PubChem BioAssay data set” (2004).
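Grown in 96-well plates, cells were treated for 48 hours with each compound at five concentrations. Insufficient inhibition: endpoint recorded as highest concentration tested. Here, GI50 denotes the concentration required for 50% inhibition of growth.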 Activity calls are given as the source filed them. Cut-off read from the data, not from the text of the source: active = GI50 up to about 1.1 µM and inactive = higher.

Tests used:
Test in all cases: NCI tumour cell line growth inhibition, 48 h
786-0 = tested on: 786-0
A498 = tested on: A498
A549 = tested on: A549
ACHN = tested on: ACHN
CAKI-1 = tested on: CAKI-1
CCRF-CEM = tested on: CCRF-CEM
COLO 205 = tested on: COLO 205
DLD-1 = tested on: DLD-1
DMS-114 = tested on: DMS-114
DMS-273 = tested on: DMS-273
EKVX = tested on: EKVX
HCT-116 = tested on: HCT-116
HL-60 = tested on: HL-60
HOP-18 = tested on: HOP-18
HOP-62 = tested on: HOP-62
HOP-92 = tested on: HOP-92
HT-29 = tested on: HT-29
IGROV-1 = tested on: IGROV-1
K562 = tested on: K562
KM12 = tested on: KM12
LOX IMVI = tested on: LOX IMVI
LXFL 529 = tested on: LXFL 529
M14 = tested on: M14
M19-MEL = tested on: M19-MEL
MOLT-4 = tested on: MOLT-4
Malme-3M = tested on: Malme-3M
NCI-H226 = tested on: NCI-H226
NCI-H23 = tested on: NCI-H23
NCI-H460 = tested on: NCI-H460
NCI-H522 = tested on: NCI-H522
OVCAR-3 = tested on: OVCAR-3
OVCAR-4 = tested on: OVCAR-4
OVCAR-5 = tested on: OVCAR-5
OVCAR-8 = tested on: OVCAR-8
RPMI-8226 = tested on: RPMI-8226
RXF 393 = tested on: RXF 393
RXF 631 = tested on: RXF 631
SF-268 = tested on: SF-268
SF-295 = tested on: SF-295
SF-539 = tested on: SF-539
SK-MEL-28 = tested on: SK-MEL-28
SK-MEL-2 = tested on: SK-MEL-2
SK-MEL-5 = tested on: SK-MEL-5
SK-OV-3 = tested on: SK-OV-3
SN12C = tested on: SN12C
SNB-19 = tested on: SNB-19
SNB-75 = tested on: SNB-75
SNB-78 = tested on: SNB-78
SR = tested on: SR
SW-620 = tested on: SW-620
TK-10 = tested on: TK-10
U-251 = tested on: U-251
UACC-257 = tested on: UACC-257
UACC-62 = tested on: UACC-62
UO-31 = tested on: UO-31
XF498 = tested on: XF498
HCC 2998 = tested on: HCC 2998
HCT-15 = tested on: HCT-15
KM-20L2 = tested on: KM-20L2

In the case of `CC1CC2CC(=O)CC3(C1)C2CCCN3CCCO` (stereo not drawn), the GI50 (786-0) is reported as > 100 µM (inactive), the GI50 (A498) is reported as > 100 µM (inactive) and the GI50 (A549) is reported as > 100 µM (inactive). For the same compound, the GI50 (ACHN) was > 100 µM (inactive), the GI50 (CAKI-1) was > 100 µM (inactive) and the GI50 (CCRF-CEM) was > 100 µM (inactive). For the same compound, the GI50 (COLO 205) was > 100 µM (inactive), the GI50 (DLD-1) was > 100 µM (inactive) and the GI50 (DMS-114) was > 100 µM (inactive). The GI50 (DMS-273) was > 100 µM (inactive), the GI50 (EKVX) was > 100 µM (inactive) and the GI50 (HCT-116) was > 100 µM (inactive). For the same compound, the GI50 (HL-60) was > 100 µM (inactive), the GI50 (HOP-18) was > 100 µM (inactive) and the GI50 (HOP-62) was > 100 µM (inactive). For the same compound, the GI50 (HOP-92) was > 100 µM (inactive), the GI50 (HT-29) was > 100 µM (inactive) and the GI50 (IGROV-1) was > 100 µM (inactive). The GI50 (K562) was > 100 µM (inactive), the GI50 (KM12) was > 100 µM (inactive) and the GI50 (LOX IMVI) was > 100 µM (inactive). The GI50 (LXFL 529) was > 100 µM (inactive), the GI50 (M14) was > 100 µM (inactive) and the GI50 (M19-MEL) was > 100 µM (inactive). The GI50 (MOLT-4) was > 100 µM (inactive), the GI50 (Malme-3M) was > 100 µM (inactive) and the GI50 (NCI-H226) was > 100 µM (inactive). The GI50 (NCI-H23) was > 100 µM (inactive), the GI50 (NCI-H460) was > 100 µM (inactive) and the GI50 (NCI-H522) was > 100 µM (inactive). For the same compound, the GI50 (OVCAR-3) was > 100 µM (inactive), the GI50 (OVCAR-4) was > 100 µM (inactive) and the GI50 (OVCAR-5) was > 100 µM (inactive). For the same compound, the GI50 (OVCAR-8) was > 100 µM (inactive), the GI50 (RPMI-8226) was > 100 µM (inactive) and the GI50 (RXF 393) was > 100 µM (inactive). The GI50 (RXF 631) was > 100 µM (inactive), the GI50 (SF-268) was > 100 µM (inactive) and the GI50 (SF-295) was > 100 µM (inactive). For the same compound, the GI50 (SF-539) was > 100 µM (inactive), the GI50 (SK-MEL-28) was > 100 µM (inactive) and the GI50 (SK-MEL-2) was > 100 µM (inactive). The GI50 (SK-MEL-5) was > 100 µM (inactive), the GI50 (SK-OV-3) was > 100 µM (inactive) and the GI50 (SN12C) was > 100 µM (inactive). For the same compound, the GI50 (SNB-19) was > 100 µM (inactive), the GI50 (SNB-75) was > 100 µM (inactive) and the GI50 (SNB-78) was > 100 µM (inactive). The GI50 (SR) was > 100 µM (inactive), the GI50 (SW-620) was > 100 µM (inactive) and the GI50 (TK-10) was > 100 µM (inactive). The GI50 (U-251) was > 100 µM (inactive), the GI50 (UACC-257) was > 100 µM (inactive) and the GI50 (UACC-62) was > 100 µM (inactive). For the same compound, the GI50 (UO-31) was > 100 µM (inactive) and the GI50 (XF498) was > 100 µM (inactive).
In the case of `O=C(c1ccccc1)c1nc2c(Cl)ccc(Cl)c2cc1C(Br)Br`, the GI50 (786-0) is reported as 0.286 µM (active), the GI50 (A549) is reported as 3.08 µM (inactive) and the GI50 (ACHN) is reported as 0.243 µM (active). The GI50 (CAKI-1) was 1.58 µM (inactive), the GI50 (CCRF-CEM) was 0.191 µM (active) and the GI50 (COLO 205) was 3.19 µM (inactive). The GI50 (DLD-1) was 0.444 µM (active), the GI50 (DMS-114) was 2.04 µM (inactive) and the GI50 (DMS-273) was 1.32 µM (inactive). For the same compound, the GI50 (HCC 2998) was 2.06 µM (inactive), the GI50 (HCT-116) was 0.375 µM (active) and the GI50 (HCT-15) was 0.69 µM. For the same compound, the GI50 (HOP-18) was 1.66 µM (inactive), the GI50 (HOP-62) was 1.67 µM (inactive) and the GI50 (IGROV-1) was 2.75 µM (inactive). For the same compound, the GI50 (K562) was 0.311 µM (active), the GI50 (KM-20L2) was 1.04 µM (active) and the GI50 (KM12) was 1.14 µM (inactive). For the same compound, the GI50 (LOX IMVI) was 1.65 µM (inactive), the GI50 (LXFL 529) was 0.39 µM (active) and the GI50 (M14) was 1.4 µM (inactive). For the same compound, the GI50 (M19-MEL) was 1.83 µM (inactive), the GI50 (MOLT-4) was 1.36 µM (inactive) and the GI50 (Malme-3M) was 2.19 µM (inactive). For the same compound, the GI50 (NCI-H226) was 1.97 µM (inactive), the GI50 (NCI-H522) was 1.54 µM (inactive) and the GI50 (OVCAR-3) was 1.55 µM (inactive). The GI50 (OVCAR-4) was 1.82 µM (inactive), the GI50 (OVCAR-5) was 1.08 µM (active) and the GI50 (OVCAR-8) was 1.44 µM (inactive). For the same compound, the GI50 (RPMI-8226) was 0.284 µM (active), the GI50 (RXF 393) was 2.34 µM (inactive) and the GI50 (RXF 631) was 1.78 µM (inactive). The GI50 (SF-268) was 1.41 µM (inactive), the GI50 (SF-295) was 1.2 µM (inactive) and the GI50 (SF-539) was 0.484 µM (active). For the same compound, the GI50 (SK-MEL-28) was 0.215 µM (active), the GI50 (SK-MEL-2) was 2.01 µM (inactive) and the GI50 (SK-MEL-5) was 1.34 µM (inactive). For the same compound, the GI50 (SN12C) was 1.17 µM (inactive), the GI50 (SNB-19) was 1.54 µM (inactive) and the GI50 (SNB-75) was 0.668 µM (active). For the same compound, the GI50 (SNB-78) was 2.06 µM (inactive), the GI50 (SR) was 1.59 µM (inactive) and the GI50 (SW-620) was 0.308 µM (active). The GI50 (TK-10) was 1.43 µM (inactive), the GI50 (U-251) was 1.11 µM (active) and the GI50 (UACC-257) was 0.419 µM (active). For the same compound, the GI50 (UACC-62) was 1.25 µM (inactive), the GI50 (UO-31) was 1.29 µM (inactive) and the GI50 (XF498) was 1.07 µM (active).
In the case of `COC(=O)/C=C(/C(=O)OC)C1(C)c2cc(C(=O)OC)c(C(=O)OC)c(N)c2C(=N)N1c1ccccc1` (stereo not drawn), the GI50 (786-0) is reported as 28.6 µM (inactive), the GI50 (A498) is reported as 31.1 µM (inactive) and the GI50 (A549) is reported as 42 µM (inactive). The GI50 (ACHN) was 18 µM (inactive), the GI50 (CAKI-1) was 21.4 µM (inactive) and the GI50 (CCRF-CEM) was 15.5 µM (inactive). The GI50 (COLO 205) was 15.9 µM (inactive), the GI50 (DLD-1) was 13.8 µM (inactive) and the GI50 (DMS-114) was 15.1 µM (inactive). The GI50 (DMS-273) was 52.8 µM (inactive), the GI50 (EKVX) was 27.1 µM (inactive) and the GI50 (HCC 2998) was 16.7 µM (inactive). The GI50 (HCT-116) was 15.8 µM (inactive), the GI50 (HCT-15) was 31.8 µM and the GI50 (HL-60) was 14.1 µM (inactive). For the same compound, the GI50 (HOP-18) was 20.6 µM (inactive), the GI50 (HOP-62) was 86.7 µM (inactive) and the GI50 (HOP-92) was 10.4 µM (inactive). The GI50 (HT-29) was 16.7 µM (inactive), the GI50 (IGROV-1) was 27.5 µM (inactive) and the GI50 (K562) was 18.7 µM (inactive). For the same compound, the GI50 (KM-20L2) was 17 µM (inactive), the GI50 (KM12) was 17.2 µM (inactive) and the GI50 (LOX IMVI) was 18.2 µM (inactive). The GI50 (LXFL 529) was 19 µM (inactive), the GI50 (M14) was 17.5 µM (inactive) and the GI50 (M19-MEL) was 13.9 µM (inactive). For the same compound, the GI50 (MOLT-4) was 17.8 µM (inactive), the GI50 (Malme-3M) was 17.4 µM (inactive) and the GI50 (NCI-H226) was 36.2 µM (inactive). The GI50 (NCI-H23) was 22.1 µM (inactive), the GI50 (NCI-H460) was 39.5 µM (inactive) and the GI50 (NCI-H522) was 14.2 µM (inactive). The GI50 (OVCAR-3) was 17.9 µM (inactive), the GI50 (OVCAR-5) was 41.4 µM (inactive) and the GI50 (OVCAR-8) was 17.4 µM (inactive). For the same compound, the GI50 (RPMI-8226) was 21.5 µM (inactive), the GI50 (RXF 393) was 17.1 µM (inactive) and the GI50 (RXF 631) was 29.1 µM (inactive). The GI50 (SF-268) was 19.3 µM (inactive), the GI50 (SF-295) was 17.9 µM (inactive) and the GI50 (SF-539) was 22.2 µM (inactive). The GI50 (SK-MEL-28) was 18.1 µM (inactive), the GI50 (SK-MEL-2) was 36.7 µM (inactive) and the GI50 (SK-MEL-5) was > 10 µM (inactive). For the same compound, the GI50 (SK-OV-3) was 34 µM (inactive), the GI50 (SN12C) was 19.6 µM (inactive) and the GI50 (SNB-19) was 49 µM (inactive). The GI50 (SNB-75) was 29.4 µM (inactive), the GI50 (SR) was 22.8 µM (inactive) and the GI50 (TK-10) was 41.4 µM (inactive). The GI50 (U-251) was 20.1 µM (inactive), the GI50 (UACC-257) was > 10 µM (inactive) and the GI50 (UACC-62) was 24.6 µM (inactive). The GI50 (UO-31) was 22.6 µM (inactive) and the GI50 (XF498) was 14.7 µM (inactive).
